Laboratory results from patent publication US5179105A, “Phenoxyacetic acid compounds, method for production thereof, and pharmaceutical preparations containing same” (Terumo Kabushiki Kaisha, priority 1990, dated 1993).

Key:
Set-up in all cases: species or system Hartley type male guinea pigs
[1] = test system: thromboxane A2; test: in vitro antagonistic action to thromboxane A2 (U-46619-induced shrinkage of excised bronchial segments); conditions: guinea pig bronchial segments, U-46619 10^-7; read-out: antagonistic action to Tx A2 (IC50)
Experimental: (§1) The IC50 values indicative of the in vitro antagonistic actions of the compounds of this invention to thromboxane A2 and leukotriene D4 were determined by the use of the following test system.
(§2) Bronchial segments and ileal segments excised from Hartley type male guinea pigs 350 to 450 g in body weight were suspended under respective loads of 0.3 g and 0.5 g in Magnus baths containing Tyrode solution and kept exposed to passage therethrough of a mixed gas consisting of 95% of oxygen and 5% of carbon dioxide. After the suspended segments were stabilized for about one hour, U-46619 (equivalent to thromboxane A2, produced by Kaiman K. K.) was added in a concentration of 10^-7 to the bath containing the bronchial segments and leukotriene D4 (produced by Wako Pure Chemicals Co., Ltd.) in a concentration of 10^-8 M to the bath containing the […] contrast to the amounts of shrinkage produced in the bronchial segments and ileal segments, the amounts of shrinkage produced by U-46619 in the bronchial segments and the amounts of shrinkage produced by leukotriene D4 in the ileal segments both in the presence of the compounds of this invention added in varying concentrations were measured. The IC50 values were computed based on the results of the measurement.

[2] = test system: leukotriene D4; test: in vitro antagonistic action to leukotriene D4 (LTD4-induced shrinkage of excised ileal segments); conditions: guinea pig ileal segments, leukotriene D4 10^-8 M
Experimental: as §1, §2

[3] = test system: leukotriene D4; test: in vitro antagonistic action to leukotriene D4 (LTD4-induced shrinkage of excised bronchial segments); conditions: guinea pig bronchial segments, leukotriene D4 10^-8 M
Experimental: as §1, §2

Compound | IC50 [1] | IC50 [2] | IC50 [3]
CCCc1c(OCC(=O)Nc2cc(CCCS(=O)(=O)c3ccc(Cl)cc3)ccc2OCC(=O)O)ccc(C(C)=O)c1O | 4.5 nM | 3800 nM | –
O=C(O)COc1ccc(CCCS(=O)(=O)c2ccc(Cl)cc2)cc1NC(=O)c1cccc(OCc2ccc3ccccc3n2)c1 [drawing 21] | 57 nM | 1.3 nM | 4 nM
O=C(O)COc1ccc(CCCS(=O)(=O)c2ccc(Cl)cc2)cc1NC(=O)c1cccc(OCc2ccc3ccccc3n2)c1 [drawing 22] | 30 nM | – | 150 nM

Continued, values first:

IC50 [1] | IC50 [2] | IC50 [3] | Compound
50 nM | 430 nM | 70 nM | CCCc1c(OCCCC(=O)Nc2cc(CCCS(=O)(=O)c3ccc(Cl)cc3)ccc2OCC(=O)O)ccc(C(C)=O)c1O
26 nM | 370 nM | – | O=C(O)COc1ccc(CCCS(=O)(=O)c2ccc(Cl)cc2)cc1NC(=O)c1ccc(OCc2ccc3ccccc3n2)cc1
